The assay concerns Akkermansia muciniphila EB-AMDK19 (KCTC 13761BP) strain. As to the kind of experiment: Growth (change in optical density, ΔOD600) in anaerobic batch culture. The following applies: for Growth (AOD 600): after 48 hours of culture; for Growth (ΔOD600): after 72 hours of culture. The class given is cell-based. As for the experimental part: In addition, in the following examples, the concentration of anaerobes (amount of biomass produced) was determined by measuring the optical density of the culture medium at 600 nm using a spectrophotometer during the culture period. ΔOD was calculated as the difference in absorbance between the initial stage of culture and after 48 hours (or 72 hours) of culture.
Based on soy casein digest broth (tryptic soy broth (TSB)), the optimal combination of substrates and components that can replace mucin was investigated.
Next, changes in the optical density (OD600) of the strain were measured, and the results of the measurement are shown in Table 3 below.
In addition, to find the optimal concentration of cobalamin, the strain was cultured while changing the concentrations of cobalamin, and then changes in the optical density (OD600) of the strain were measured.
In order to find the essential components necessary for high-concentration culture of anaerobes and an optimal combination thereof, the Akkermansia muciniphila strain was cultured in media having various combinations of components under the same conditions.
An experiment was performed in the same manner as in Example 1 above, except that the medium shown in Table 2 above were used and the kind of strain cultured was changed as shown in Table 7 below. Specifically, each Akkermansia muciniphila strain was inoculated into the medium at a ratio of 0.1% v/v, and then cultured at 37° C. under anaerobic conditions (90% N2, 5% CO2, and 5% H2) for 24 to 48 hours.

The mark [1] stands for this setting: single vitamin added at 0.1 mg/L.
Where [2] appears, read: single vitamin added at 0.2 mg/L.

Consider nine compounds from US20220325233A1, “MEDIUM SUPPLEMENT FOR HIGH-YIELD INDUSTRIAL CULTURE OF FASTIDIOUS ANAEROBES AND MEDIUM COMPOSITION CONTAINING THE SAME” (priority 2020, published 2022).

Take Cyanocobalamin: the “Growth (AOD 600)” value (Cyanocobalamin 0.05 mg/L) stood at 0.563 ± 0.012; the “Growth (AOD 600)” value (Cyanocobalamin 0.1 mg/L) amounted to 0.576 ± 0.014; the “Growth (AOD 600)” value (Cyanocobalamin 0.2 mg/L) came to 0.577 ± 0.008; the “Growth (AOD 600)” value (Cyanocobalamin 0.5 mg/L) is reported as 0.575 ± 0.011; the “Growth (AOD 600)” value (Cyanocobalamin 1 mg/L) is listed as 0.581 ± 0.003; the “Growth (AOD 600)” value (Cyanocobalamin 5 mg/L) worked out at 0.571 ± 0.007. In addition, the “optimal concentration in the medium” value (from Table 5 concentration series) was 0.1 mg/L. For the same compound, the “Growth (ΔOD600)” value under setting [1] was found to be 0.575. Turning to `Cc1cc2nc3c(=O)[nH]c(=O)nc-3n(C[C@H](O)[C@H](O)[C@H](O)CO)c2cc1C` [Medium B2], the “Growth (ΔOD600)” value under setting [1] amounted to 0.334. With `CC(C)(CO)[C@@H](O)C(=O)NCCC(=O)O` [Medium B5], the “Growth (ΔOD600)” value under setting [1] stood at 0.347. As to `Nc1nc(=O)c2nc(CNc3ccc(C(=O)N[C@@H](CCC(=O)O)C(=O)O)cc3)cnc2[nH]1` [Medium B9], the “Growth (ΔOD600)” value (single vitamin added at 0.05 mg/L) was found to be 0.348. Take `Cc1ncc(CO)c(CO)c1O` [Medium B6]: the “Growth (ΔOD600)” value (single vitamin added at 0.5 mg/L) is on record as 0.337. In the case of `Nc1ccc(C(=O)O)cc1` [Medium B10], under setting [1], the “Growth (ΔOD600)” value came out at 0.335. As to `Cc1ncc(C[n+]2csc(CCO)c2C)c(N)n1` [Medium B1], under setting [2], the “Growth (ΔOD600)” value is listed as 0.352.

`O=C(O)c1cccnc1` [Medium B3]: the “Growth (ΔOD600)” value under setting [2] turned out to be 0.342.

Turning to `O=C(O)CCCC[C@@H]1SC[C@@H]2NC(=O)N[C@@H]21` [Medium B7], the “Growth (ΔOD600)” value (single vitamin added at 0.02 mg/L) is on record as 0.344.
